Laboratory results: US8822451B2, “Modulators of ATP-binding cassette transporters” (Vertex Pharmaceuticals Incorporated, priority 2005, dated 2014)

Biological target: T1, […]F508-CFTR (Homo sapiens, UniProt P13569, DEL508-508)
T1 construct: expressed in transfected cells
Assay: Assay results of Table 3: ΔF508-CFTR modulation, membrane potential optical assay (assay format not stated)
Assay type: cell-based
Conditions: NIH3T3 mouse fibroblasts stably expressing […]F508-CFTR (optical assays); for Efficacy: efficacy range; for EC50: potency range
In short: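 Two VIPR II FRET voltage-dye formats in ΔF508-CFTR NIH3T3 cells yield EC50 and efficacy. Potentiator mode: 27° C.-corrected cells get compound in Cl⁻-free medium, forskolin 2-10 μM after 22 s (final Cl⁻ 28 mM). Corrector mode: compound 16 h at 37° C., activation with forskolin 10 μM plus genistein 20 μM.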

T1 sequence (P13569 with tags, fused parts or gaps DEL508-508): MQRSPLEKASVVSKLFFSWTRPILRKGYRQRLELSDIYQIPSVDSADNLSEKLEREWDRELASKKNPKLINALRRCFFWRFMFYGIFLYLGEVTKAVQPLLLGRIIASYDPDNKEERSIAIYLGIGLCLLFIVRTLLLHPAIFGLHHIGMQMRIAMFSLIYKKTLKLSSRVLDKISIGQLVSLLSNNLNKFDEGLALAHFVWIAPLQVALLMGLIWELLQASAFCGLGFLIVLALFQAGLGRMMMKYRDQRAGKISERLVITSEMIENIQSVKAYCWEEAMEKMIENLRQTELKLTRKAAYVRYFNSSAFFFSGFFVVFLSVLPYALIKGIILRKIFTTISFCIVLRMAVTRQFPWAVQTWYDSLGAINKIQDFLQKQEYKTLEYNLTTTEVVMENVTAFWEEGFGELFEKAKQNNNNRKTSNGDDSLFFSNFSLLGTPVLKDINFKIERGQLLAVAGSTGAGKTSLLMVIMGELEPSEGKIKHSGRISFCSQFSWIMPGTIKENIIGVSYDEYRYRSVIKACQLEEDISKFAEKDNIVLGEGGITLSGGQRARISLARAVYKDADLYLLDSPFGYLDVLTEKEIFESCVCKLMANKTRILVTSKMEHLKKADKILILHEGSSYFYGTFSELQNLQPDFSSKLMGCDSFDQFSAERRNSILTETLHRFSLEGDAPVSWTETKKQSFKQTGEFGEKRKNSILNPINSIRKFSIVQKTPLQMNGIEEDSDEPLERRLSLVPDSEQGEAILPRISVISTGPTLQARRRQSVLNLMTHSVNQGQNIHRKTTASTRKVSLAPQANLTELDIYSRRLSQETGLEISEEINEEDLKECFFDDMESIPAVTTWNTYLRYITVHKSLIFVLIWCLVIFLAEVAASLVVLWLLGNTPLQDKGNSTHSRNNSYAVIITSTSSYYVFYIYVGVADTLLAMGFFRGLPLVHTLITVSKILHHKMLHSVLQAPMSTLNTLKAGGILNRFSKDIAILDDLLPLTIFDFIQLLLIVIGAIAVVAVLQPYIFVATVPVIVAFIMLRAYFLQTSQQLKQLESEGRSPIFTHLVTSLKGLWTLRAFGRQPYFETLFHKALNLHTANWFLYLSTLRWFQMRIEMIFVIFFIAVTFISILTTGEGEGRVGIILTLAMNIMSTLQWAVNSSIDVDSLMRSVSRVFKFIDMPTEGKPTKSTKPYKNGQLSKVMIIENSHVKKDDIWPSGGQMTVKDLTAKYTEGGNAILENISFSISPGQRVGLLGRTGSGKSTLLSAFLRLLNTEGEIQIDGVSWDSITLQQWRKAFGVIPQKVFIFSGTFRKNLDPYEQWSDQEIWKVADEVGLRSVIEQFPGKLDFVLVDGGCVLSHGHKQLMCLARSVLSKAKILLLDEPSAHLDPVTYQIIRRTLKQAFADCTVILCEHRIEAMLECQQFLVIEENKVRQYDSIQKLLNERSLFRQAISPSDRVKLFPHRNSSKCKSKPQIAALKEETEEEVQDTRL

| EC50 | SMILES | Efficacy |
| --- | --- | --- |
| 1 to 5 µM | CCCCCN(C)c1nc(C(N)=O)cc(-c2ccccc2)n1 [Compound 186] | +++ (+++ corresponds to Efficacy greater than 100) |
| 1 to 5 µM | COc1ccc(C2(CNc3nc(C(N)=O)cc(-c4ccccc4)n3)CCCC2)cc1OC [Compound 187] | ++ (++ corresponds to Efficacy between 100 and 50) |
| < 1 µM | C=C(C)CN(CC)c1nc(C(N)=O)cc(-c2ccccc2)n1 [Compound 188] | +++ (+++ corresponds to Efficacy greater than 100) |
| > 5 µM | COc1ccc(-c2cc(C(N)=O)nc(NCC3CC3)n2)cc1 [Compound 189] | + (+ corresponds to Efficacy less than 50) |
| < 1 µM | CCOCCN(CCOCC)c1nc(C(N)=O)cc(-c2ccccc2)n1 [Compound 190] | ++ (++ corresponds to Efficacy between 100 and 50) |
| > 5 µM | COc1cccc(-c2cc(C(N)=O)nc(N)n2)c1 [Compound 191] | + (+ corresponds to Efficacy less than 50) |
| 1 to 5 µM | COc1ccccc1-c1cc(C(N)=O)nc(NCC2CCCO2)n1 (stereo not drawn) [Compound 193] | +++ (+++ corresponds to Efficacy greater than 100) |
| 1 to 5 µM | CCOc1cccc(-c2cc(C(N)=O)nc(N3CCCCC3)n2)c1 [Compound 194] | +++ (+++ corresponds to Efficacy greater than 100) |
| > 5 µM | COc1ccc(S(=O)(=O)N2CCN(c3nc(C(N)=O)cc(-c4ccccc4)n3)CC2)cc1 [Compound 195] | ++ (++ corresponds to Efficacy between 100 and 50) |
| 1 to 5 µM | CC(C)CN(CC(C)C)c1nc(C(N)=O)cc(-c2ccccc2)n1 [Compound 196] | + (+ corresponds to Efficacy less than 50) |
| 1 to 5 µM | CCCN(CC1CC1)c1nc(C(N)=O)cc(-c2ccc(OC)cc2)n1 [Compound 197] | ++ (++ corresponds to Efficacy between 100 and 50) |
| 1 to 5 µM | CCOc1ccc(-c2cc(C(N)=O)nc(N3CCCCC3)n2)cc1 [Compound 198] | + (+ corresponds to Efficacy less than 50) |
| 1 to 5 µM | NC(=O)c1cc(-c2cc(Cl)cc(Cl)c2)nc(N2CCCCC2)n1 [Compound 199] | ++ (++ corresponds to Efficacy between 100 and 50) |
| < 1 µM | CCN(CC)c1nc(C(N)=O)cc(-c2ccc(Cl)cc2Cl)n1 [Compound 200] | ++ (++ corresponds to Efficacy between 100 and 50) |
| 1 to 5 µM | CCCCCCN(C)c1nc(C(N)=O)cc(-c2ccccc2)n1 [Compound 201] | +++ (+++ corresponds to Efficacy greater than 100) |
| 1 to 5 µM | NC(=O)c1cc(-c2cc(Cl)ccc2Cl)nc(N2CCCCC2)n1 [Compound 202] | ++ (++ corresponds to Efficacy between 100 and 50) |
| > 5 µM | COc1cccc(-c2cc(C(N)=O)nc(NCC3CC3)n2)c1 [Compound 203] | +++ (+++ corresponds to Efficacy greater than 100) |
| 1 to 5 µM | C#CCN(C)c1nc(C(N)=O)cc(-c2ccccc2)n1 [Compound 204] | ++ (++ corresponds to Efficacy between 100 and 50) |
| > 5 µM | COc1ccccc1-c1cc(C(N)=O)nc(N2CCCCC2)n1 [Compound 205] | ++ (++ corresponds to Efficacy between 100 and 50) |
| 1 to 5 µM | CC(C)CCN(C)c1nc(C(N)=O)cc(-c2ccccc2)n1 [Compound 206] | ++ (++ corresponds to Efficacy between 100 and 50) |
| 1 to 5 µM | CCN(CC)c1nc(C(N)=O)cc(-c2ccc(C)c(C)c2)n1 [Compound 207] | +++ (+++ corresponds to Efficacy greater than 100) |
| > 5 µM | COc1ccccc1-c1cc(C(N)=O)nc(N(C)C)n1 [Compound 208] | + (+ corresponds to Efficacy less than 50) |
| 1 to 5 µM | CCOC(=O)CN(C)c1nc(C(N)=O)cc(-c2ccccc2)n1 [Compound 209] | ++ (++ corresponds to Efficacy between 100 and 50) |
| < 1 µM | CCN(CC)c1nc(C(N)=O)cc(-c2cccc(Cl)c2Cl)n1 [Compound 210] | ++ (++ corresponds to Efficacy between 100 and 50) |
| > 5 µM | COc1cccc(-c2cc(C(N)=O)nc(N3CCOCC3)n2)c1 [Compound 211] | ++ (++ corresponds to Efficacy between 100 and 50) |
| < 1 µM | CCOc1cccc(-c2cc(C(N)=O)nc(N(CC)CC)n2)c1 [Compound 212] | +++ (+++ corresponds to Efficacy greater than 100) |

Continued, molecule first:

| SMILES | EC50 | Efficacy |
| --- | --- | --- |
| CCN(CC)c1nc(C(N)=O)cc(-c2ccc(S(=O)(=O)CC)cc2)n1 [Compound 155] | > 5 µM | ++ (++ corresponds to Efficacy between 100 and 50) |
| CCN(CCO)c1nc(C(=O)NC)cc(-c2ccccc2)n1 [Compound 156] | > 5 µM | + (+ corresponds to Efficacy less than 50) |
| CCN(CC)c1nc(C(=O)N2CCCCC2)cc(-c2ccccc2)n1 [Compound 157] | > 5 µM | + (+ corresponds to Efficacy less than 50) |
| CCN(CC)c1nc(C(N)=O)cc(-c2cccc(CO)c2)n1 [Compound 158] | > 5 µM | ++ (++ corresponds to Efficacy between 100 and 50) |
| CC(C)CN(C)c1nc(C(N)=O)cc(-c2ccccc2)n1 [Compound 159] | 1 to 5 µM | +++ (+++ corresponds to Efficacy greater than 100) |
| CCN(CC)c1nc(C(N)=O)cc(-c2cccc(F)c2)n1 [Compound 160] | > 5 µM | ++ (++ corresponds to Efficacy between 100 and 50) |
| COc1cccc(-c2cc(C(N)=O)nc(N3CCCCCC3)n2)c1 [Compound 161] | 1 to 5 µM | +++ (+++ corresponds to Efficacy greater than 100) |
| CN(Cc1ccco1)c1nc(C(N)=O)cc(-c2ccccc2)n1 [Compound 162] | 1 to 5 µM | ++ (++ corresponds to Efficacy between 100 and 50) |
| CCN(CC)c1nc(C(N)=O)cc(-c2cc(F)ccc2F)n1 [Compound 163] | < 1 µM | ++ (++ corresponds to Efficacy between 100 and 50) |
| CN(Cc1ccccc1)c1nc(C(N)=O)cc(-c2ccccc2)n1 [Compound 164] | 1 to 5 µM | ++ (++ corresponds to Efficacy between 100 and 50) |
| CC1CCN(c2nc(C(N)=O)cc(-c3ccccc3)n2)CC1 [Compound 165] | > 5 µM | +++ (+++ corresponds to Efficacy greater than 100) |
| CC(C)c1ccc(-c2cc(C(N)=O)nc(N3CCCCC3)n2)cc1 [Compound 166] | > 5 µM | + (+ corresponds to Efficacy less than 50) |
| NC(=O)c1cc(-c2ccccc2)nc(N2CCOCC2)n1 [Compound 167] | > 5 µM | ++ (++ corresponds to Efficacy between 100 and 50) |
| COc1cccc(-c2cc(C(N)=O)nc(N3CCCCC3)n2)c1 [Compound 168] | > 5 µM | +++ (+++ corresponds to Efficacy greater than 100) |
| NC(=O)c1cc(-c2ccccc2)nc(N2CCSC2)n1 [Compound 169] | > 5 µM | +++ (+++ corresponds to Efficacy greater than 100) |
| NC(=O)c1cc(-c2cc3ccccc3s2)nc(N2CCCCC2)n1 [Compound 170] | 1 to 5 µM | + (+ corresponds to Efficacy less than 50) |

| SMILES | EC50 | Efficacy |
| --- | --- | --- |
| CCCCN(CCCC)c1nc(C(N)=O)cc(-c2ccccc2)n1 [Compound 171] | < 1 µM | ++ (++ corresponds to Efficacy between 100 and 50) |
| CCN(CC)c1nc(C(N)=O)cc(-c2ccc(OC)cc2OC)n1 [Compound 172] | 1 to 5 µM | +++ (+++ corresponds to Efficacy greater than 100) |
| COc1cccc(-c2cc(C(N)=O)nc(NCc3ccco3)n2)c1 [Compound 173] | > 5 µM | ++ (++ corresponds to Efficacy between 100 and 50) |
| CCN(CC)c1nc(C(N)=O)cc(-c2cnc(OC)nc2OC)n1 [Compound 174] | > 5 µM | ++ (++ corresponds to Efficacy between 100 and 50) |
| Cc1cc(-c2cc(C(N)=O)nc(N3CCCCC3)n2)ccc1F [Compound 175] | > 5 µM | ++ (++ corresponds to Efficacy between 100 and 50) |
| COc1ccc(-c2cc(C(N)=O)nc(NCc3ccco3)n2)cc1 [Compound 176] | > 5 µM | ++ (++ corresponds to Efficacy between 100 and 50) |
| CCN(CC)C(=O)C1CCCN(c2nc(C(N)=O)cc(-c3ccccc3)n2)C1 (stereo not drawn) [Compound 177] | > 5 µM | ++ (++ corresponds to Efficacy between 100 and 50) |
| C=CCNc1nc(C(N)=O)cc(-c2ccccc2OC)n1 [Compound 178] | 1 to 5 µM | +++ (+++ corresponds to Efficacy greater than 100) |
| CNc1nc(C(N)=O)cc(-c2ccccc2)n1 [Compound 179] | > 5 µM | + (+ corresponds to Efficacy less than 50) |
| N#CC1(c2ccccc2)CCN(c2nc(C(N)=O)cc(-c3ccccc3)n2)CC1 [Compound 180] | > 5 µM | ++ (++ corresponds to Efficacy between 100 and 50) |
| NC(=O)c1cc(-c2ccccc2)nc(N2CCC(CCO)CC2)n1 [Compound 181] | > 5 µM | ++ (++ corresponds to Efficacy between 100 and 50) |
| NC(=O)c1cc(-c2ccc(OC(F)(F)F)cc2)nc(N2CCCCC2)n1 [Compound 182] | 1 to 5 µM | + (+ corresponds to Efficacy less than 50) |
| NC(=O)c1cc(-c2ccccc2)nc(N2CCC2)n1 [Compound 183] | > 5 µM | ++ (++ corresponds to Efficacy between 100 and 50) |
| CCN(CC)c1nc(C(N)=O)cc(-c2ccc(CC(C)C)cc2)n1 [Compound 184] | < 1 µM | ++ (++ corresponds to Efficacy between 100 and 50) |
| NC(=O)c1cc(-c2cccc(C(F)(F)F)c2)nc(N2CCCCC2)n1 [Compound 185] | > 5 µM | + (+ corresponds to Efficacy less than 50) |
